Where a name gives a salt, the structure may show the parent alone.
Tests used:
Format in all cases: in vivo
[1] = tested on: type-II diabetes model mice (db/db mice); assay: Test Example 3: effective concentration of 24-methylene-9,19-cyclolanostan-3-ol for hemoglobin Alc lowering, 40 days; conditions: for Hemoglobin Alc levels (%) 41st day from the administration: negative sample = 100; for lowering effect for the hemoglobin Alc levels in comparison with negative sample: 41st day
Method: The 24-methylene-9,19-cyclolanostan-3-ol produced in Preparation Example 1 mentioned above was used as a test sample 3.
In this test, 6-week old male db/db mice (purchased from Clea Japan, Inc.) were used as type-II diabetes model mice. These mice were divided into groups, each consisting of 7 animals. The test sample 3 was dissolved in DMSO, and the concentration of 24-methylene-9,19-cyclolanostan-3-ol was adjusted to 0.1 or 1 μg/ml with physiological saline. The final DMSO concentration was adjusted to 0.2%. […] The type-II diabetes model mice were administered with 1 mL of the test sample 3 solution of either concentration or negative sample solution once a day everyday with a sonde for 40 consecutive days. On the 41st day from the start of the repetitive administration, hemoglobin Alc levels were measured by using DCA 2000 (Bayer-Sankyo Co., Ltd.).

[2] = tested on: type-II diabetes model mice (db/db mice); assay: Test Example 2: hemoglobin Alc lowering action compared with a clinical antidiabetic drug, 22 days; conditions: for Hemoglobin Alc levels (%) 23rd day from the administration: oral 1 mL once a day for 22 days, test samples 1 μg/mL, control sample 1 7.5 μg/mL pioglitazone hydrochloride, negative sample = 100
Method: This test was performed in order to compare the hemoglobin Alc lowering action of the compounds of the present invention with that of an antidiabetic drug used in the clinical practice.
The same test sample 1 (9,19-cyclolanostan-3-ol) and test sample 2 (24-methylene-9,19-cyclolanostan-3-ol) used in Test Example 1 were used.
As type-II diabetes model mice, 6-week old male db/db mice (purchased from Clea Japan, Inc.) were used. These mice were divided into groups, each consisting of 7 animals. Each test sample was dissolved in DMSO, and the concentration was adjusted to 1 μg/mL with physiological saline. The final DMSO concentration was adjusted to 0.2%. […] Further, as a control sample 1, ACTOS® tablets (Takeda Pharmaceutical Co., Ltd.) were ground in a mortar and dissolved in physiological saline so that the concentration of pioglitazone hydrochloride as the active ingredient should become 7.5 μg/mL. The type-II diabetes model mice were orally administered with 1 mL of each test sample solution, control sample 1 solution or negative sample solution once a day everyday with a sonde for 22 consecutive days. On the 23rd day from the start of the administration, hemoglobin Alc levels were measured by using DCA 2000 (Bayer-Sankyo Co., Ltd.).

[3] = tested on: type-II diabetes model mice (db/db mice); assay: Test Example 4: random and fasting blood glucose levels during repetitive administration, 40 days; conditions: 1 mL once a day for 40 days, test samples 1 μg/mL, control sample 15 μg/ml; for changes over time in random blood glucose levels: FIG. 1; for changes over time in fasting blood glucose levels: after 15 hours of fasting, FIG. 2
Method: This test was performed in order to evaluate the hemoglobin Alc lowering action and hyperglycemia improving effect activity of compounds having the cyclolanostane skeleton.
The 9,19-cyclolanostan-3-ol and 24-methylene-9,19-cyclolanostan-3-ol produced in Preparation Example 1 mentioned above were used as test samples 1 and 2, respectively. Further, β-sitosterol (Tama Biochemical Co., Ltd.) was used as a control sample.
In this test, 6-week old male db/db mice (purchased from Clea Japan, Inc.) were used as type-II diabetes model mice. These mice were divided into groups, each consisting of 7 animals. Each sample was dissolved in DMSO, and the concentrations of 9,19-cyclolanostan-3-ol and […] were adjusted to 1 μg/mL with physiological saline to obtain test sample 1 solution and test sample 2 solution. Further, concentration of β-sitosterol was adjusted to 15 μg/ml in a similar manner to obtain a control sample solution. The final DMSO concentration was adjusted to 0.2%. […] The type-II diabetes model mice were administered with 1 mL of one of the test sample solutions, control sample solution and negative sample solution once a day everyday with a sonde for 40 consecutive days. Fasting blood glucose levels and random blood glucose levels were measured over time by using Antisense II (Bayer-Sankyo Co., Ltd.). The fasting blood glucose levels were measured after 15 hours of fasting.

[4] = tested on: type-II diabetes model mice (db/db mice); assay: Test Example 1: hemoglobin Alc lowering action, repetitive administration for 45 days; conditions: for Hemoglobin Alc levels (%) 43rd day from the administration: 1 mL of 1 μg/mL once a day with a sonde, negative sample = 100; for lowering effect on hemoglobin Alc levels in comparison with negative sample: 43rd day, 1 mL of 1 μg/mL once a day
Method: This test was performed in order to determine the hemoglobin Alc lowering action of a compound having the cyclolanostane skeleton.
The 9,19-cyclolanostan-3-ol and 24-methylene-9,19-cyclolanostan-3-ol produced in Preparation Example 1 mentioned above were used as test samples 1 and 2, respectively.
As type-II diabetes model mice, 6-week old male db/db mice (purchased from Clea Japan, Inc.) were used in this test. These mice were divided into groups, each consisting of 7 animals. Each test sample was dissolved in DMSO, and the concentration was adjusted to 1 μg/mL with physiological saline. The final DMSO concentration was adjusted to 0.2%. […] The type-II diabetes model mice were administered with 1 mL of either of the test sample solutions or the negative sample solution once a day everyday with a sonde for 45 consecutive days. On the 43rd day of the repetitive administration, hemoglobin Alc levels were measured by using DCA 2000 (Bayer-Sankyo Co., Ltd.).

Compound	Hemoglobin Alc levels (%) 41st day from the administration ([1]; 0.1 μg (1 mL of 0.1 μg/ml once a day, 40 days))	Hemoglobin Alc levels (%) 41st day from the administration ([1]; 1 μg (1 mL of 1 μg/ml once a day, 40 days))	lowering effect for the hemoglobin Alc levels in comparison with negative sample ([1]; dose of 0.1 μg/day)	lowering effect for the hemoglobin Alc levels in comparison with negative sample ([1]; dose of 1 μg/day)	decreases in hemoglobin Alc levels in comparison with negative sample ([2]; 23rd day from the start of the administration)	Hemoglobin Alc levels (%) 23rd day from the administration [2]	changes over time in random blood glucose levels [3]	changes over time in fasting blood glucose levels [3]	Hemoglobin Alc levels (%) 43rd day from the administration [4]	lowering effect on hemoglobin Alc levels in comparison with negative sample [4]
24-methylene-9,19-cyclolanostan-3-ol [Test sample 2]	98.1 ± 22.3%	81.6 ± 14.6%	about 1.9%	18.4%						
CCc1ccc(CCOc2ccc(CC3SC(=O)NC3=O)cc2)nc1 (stereo not drawn) [Control sample 1, pioglitazone hydrochloride, reference compound]					about 0.8%	92.1 ± 0.2%				
CC[C@H](CC[C@@H](C)[C@H]1CC[C@H]2[C@@H]3CC=C4C[C@@H](O)CC[C@]4(C)[C@H]3CC[C@]12C)C(C)C [Control sample, β-sitosterol, reference compound]							rapid increase were observed	rapid increase were observed		
CC(C)CCCC(C)C1CCC2(C)C3CCC4C(C)(C)C(O)CCC45CC35CCC12C (stereo not drawn) [Test sample 1, 9,19-cyclolanostan-3-ol]						85.4 ± 11.2%	effect of suppressing the increases in blood glucose levels was clearly observed	effect of suppressing the increases in blood glucose levels was clearly observed	91.8 ± 19.6%	8.2%
C=C(CCC(C)C1CCC2(C)C3CCC4C(C)(C)C(O)CCC45CC35CCC12C)C(C)C (stereo not drawn) [Test sample 2, 24-methylene-9,19-cyclolanostan-3-ol]						82.0 ± 7.9%	effect of suppressing the increases in blood glucose levels was clearly observed	effect of suppressing the increases in blood glucose levels was clearly observed	85.6 ± 9.3%	14.5%

Source: US7674784B2, “Drug and food or drink for improving hyperglycemia” (Morinaga Milk Industry Co., Ltd., priority 2004, dated 2010)
